In ChEMBL document CHEMBL1649365, “Molecular modeling studies on imidazo[4,5-b]pyridine derivatives as Aurora A kinase inhibitors using 3D-QSAR and docking approaches” (Eur J Med Chem, 2011):

Biological target: T1, Aurora kinase A (Homo sapiens, UniProt O14965)
T1 sequence (O14965 whole entry): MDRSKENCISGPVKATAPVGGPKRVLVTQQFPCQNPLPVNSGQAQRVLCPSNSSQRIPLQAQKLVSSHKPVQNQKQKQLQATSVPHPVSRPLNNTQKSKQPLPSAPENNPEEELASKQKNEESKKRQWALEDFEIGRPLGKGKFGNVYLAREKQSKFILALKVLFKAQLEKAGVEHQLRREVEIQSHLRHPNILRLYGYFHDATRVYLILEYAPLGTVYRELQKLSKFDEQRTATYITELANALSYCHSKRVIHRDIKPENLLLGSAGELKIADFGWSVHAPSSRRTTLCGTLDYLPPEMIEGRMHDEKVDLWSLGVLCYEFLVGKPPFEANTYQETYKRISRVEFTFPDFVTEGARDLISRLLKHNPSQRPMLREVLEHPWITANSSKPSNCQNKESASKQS
Experiment: Inhibition of Aurora A

Row | IC50 [nM] | SMILES
1 | 29 | Cc1cc(CN2CCN(c3c(Cl)cnc4nc(-c5ccc(OCCO)cc5)[nH]c34)CC2)no1
2 | 81 | O=C(CN1CCN(c2c(Br)cnc3[nH]cnc23)CC1)Nc1nccs1
3 | 55 | CC(c1ccncc1)N1CCN(c2c(Br)cnc3[nH]c(-c4ccc(N(C)C)cc4)nc23)CC1 (configuration not stated)
4 | 277 | CN(C)c1ccc(-c2nc3c(N4CCN(CC(=O)Nc5ccccc5)CC4)c(Br)cnc3[nH]2)cc1
5 | 9 | COc1ccc(-c2nc3c(N4CCN(Cc5ccncc5)CC4)c(Br)cnc3[nH]2)cc1
6 | 81 | COc1ccc(-c2nc3c(N4CCN(Cc5coc(C(C)C)n5)CC4)c(Br)cnc3[nH]2)cc1
7 | 14 | CC(=O)c1cccc(-c2ccc(-c3nc4ncc(Br)c(N5CCN(Cc6cc(C)on6)CC5)c4[nH]3)cc2)c1
8 | 10 | Cc1cc(CN2CCN(c3c(Br)cnc4[nH]c(-c5ccc(N6CCNCC6)cc5)nc34)CC2)no1
9 | 10 | Cc1cc(CN2CCN(c3c(Br)cnc4[nH]c(-c5ccc(Cn6cccn6)cc5)nc34)CC2)no1
10 | 3 | Cc1cc(CN2CCN(c3c(Cl)cnc4nc(-c5ccc(Cn6cccn6)cc5)[nH]c34)CC2)no1
11 | 4400 | c1ccc(-c2ccc(-c3nc4cccnc4[nH]3)cc2)nc1

Row | SMILES | IC50 [nM]
12 | Cc1cc(CN2CCN(c3c(Cl)cnc4nc(-c5ccc(N6CCN(C)CC6)cc5)[nH]c34)CC2)no1 | 10
